Laboratory results: patent US20070238671A1, “Isopeptide Gap Junction Modulators” (priority 2003, published 2007)

What was measured:
[1] = tested on: calcium-induced arrhythmias; experiment: Calcium-induced arrhythmia model (Lynch et al.) in mice; format: in vivo, Male NMRI mice; details: isopeptide 1 nmol/kg i.v. 3 min before CaCl2 infusion; (tarr(testcompound)-tarr(vehicle))x100/tarr(vehicle), time lag to first conduction block
Procedure: Isopeptides suitable for administration to cardiac cells can be identified in an in vivo model of calcium-induced arrhythmias according to the model of Lynch et al. (1981) J Cardiovasc. Pharmacol. 3: 49-60. Mice (25-30 g) are anaesthetized with a neurolept anaesthetic combination and an i.v. cannula is inserted into the tail vein. A lead II ECG signal is recorded continuously by positioning a stainless steel ECG electrodes on the right forelimb and on the left hind limb. The ground electrode is placed on the right hind limb. The signal is amplified (x 5.000-10.000) and filtered (0.1-150 Hz) via a Hugo Sachs Electronic model 689 ECG module. The analog signal is digitized via a 12 bit data acquisition board (Data Translation model DT321) and sampled at 1000 Hz using the Notocord HEM 3.1 software for Windows NT. After a 10-minute equilibration period, the test sample of peptide is injected into the tail vein. Mice pre-treated with buffer are tested as a measure of the control level in untreated animals. The injection volume is 100 μl in all experiments.
Infusion of CaCl2 (30 mg/ml, 0.1 ml/min≈100 mg/kg/min (calcium chloride-2-hydrate, Riedel-de Haën, Germany)) is started 3 min after i.v. administration of drug or vehicle. The time lag to onset of 2nd degree AV-block is determined as the time from the start of CaCl2 infusion until the first arrhythmic event occurs. An event of 2nd degree AV-block is defined as intermittent failure of the AV conduction characterised by a P-wave without the concomitant QRS complex.
Responses are expressed relative to the time until 2nd degree AV-block occurred in vehicle treated mice. The maximal effect of compounds (e.g., isopeptides, AAP, AAP10 or controls) is determined. […]
An intravenous cannula was inserted into the tail vein. The lead II ECG signal was recorded continuously by positioning of stainless steel ECG electrodes on the right forelimb and on the left hind limb. […]

human osteoblast cells = experiment: Standard tumor promoter assay: Lucifer Yellow dye transfer, DDT-induced uncoupling; format: cell-based; details: DDT 13 μM for 60 minutes, n=13; control without DDT median 14.5 cells
Source text: The compound 1,1-bis(p-chlorophenyl)-2,2,2-trichlorethane, also known as the insecticide DDT, is an inhibitor of gap junctional communication, and has tumor promoting abilities. It inhibits cell-to-cell communication by reducing the gap junction number and size, and exposure to DDT is associated with decreased cellular levels of phosphorylated (active) forms of the gap junction protein Cx43. These actions are considered pivotal for the compound's oncogenic properties (X. Guan, et al. (1996) Carcinogenesis, 17 1791-1798; R. J. Ruch, et al. (1994) Carcinogenesis, 15 301-306); B. V. Madhukar, et al. (1996) Cancer Lett. 106 117-123). As a means of monitoring the therapeutic efficacy of the isopeptides, the effects of the isopeptides on DDT-induced uncoupling in human osteoblast cells can be determined. […]
After harvesting, the mononuclear fraction is washed once with culture medium and centrifuged at 1800 rpm for 10 minutes. Subsequently cells are counted and plated in culture medium at 8×10^6 cells/100 mm dish. […]
After culturing, cells are affixed to a PDMI-2 culture chamber (Medical Systems Corp.), maintained at 37° C. with superfused CO2, on a Zeiss Axiovert microscope. […] A cell in the monolayer is carefully injected with LY for 30 seconds; the micropipette is removed from the cell and after 30 seconds the number of cells that show dye transfer is counted. […]

Compound | % response [1] | number of cells that show dye transfer (median) (human osteoblast cells)
H-Gly-iso-D-Lys(4-nitrobenzoyl)-OH [Compound 19] | 33% | –
H-Gly-iso-D-Lys(4-methoxybenzoyl)-OH [Compound 18] | 16% | –
H-iso-Gln(NH(4-methoxybenzyl))-D-Ala-OH [Compound 116] | 25% | –
Clc1ccc(C(c2ccc(Cl)cc2)C(Cl)(Cl)Cl)cc1 [DDT, 1,1-bis(p-chlorophenyl)-2,2,2-trichlorethane] | – | 7
H-iso-Gln(NH(4-methoxybenzyl))-Ala-OH [Compound 101] | 68% | –
